Earlier results in US20220193065A1, “COMPOSITIONS AND METHODS TO TREAT NON-ALCOHOLIC FATTY LIVER DISEASES (NAFLD)” (Coherus Biosciences, Inc., priority 2019, published 2022).

Settings: monotherapy; background statement

Cc1cc(F)c(C(=O)Nc2cccc(-c3nncn3C(C)C)n2)cc1-n1cnc(C2CC2)c1 [selonsertib]
primary endpoint of the STELLAR-4 phase 3 clinical trial: failed to meet the primary endpoint
